For 3 molecules, IC50 results are on record in ChEMBL document CHEMBL1149719, “Psammaplysin C: a new cytotoxic dibromotyrosine-derived metabolite from the marine sponge Druinella (= Psammaplysilla) purpurea” (J Nat Prod, 1992).

The test system of this assay is HCT-116. Put plainly: Cytotoxicity against human HCT116 cells. The assay is classed as functional, cell-based.

SMILES strings stand for the structures. Values after ≈ are worked out from the molar mass of the structure shown.

What is called IC50 is the midpoint of a concentration-inhibition curve. Read a high IC50 as a need for much substance. Regarding `COC1=C(Br)C[C@]2(OC=C1Br)ON=C(C(=O)NCCCOc1c(Br)cc(CCN)cc1Br)[C@@H]2O` [PSAMMAPLYSIN A], half-maximal inhibition (IC50) required 6 µg/mL (≈ 8.19 µM).

As for `CNCC(O)c1cc(Br)c(OCCCNC(=O)C2=NO[C@@]3(CC(Br)=C(OC)C(Br)=CO3)[C@H]2O)c(Br)c1` (stereo partly drawn) [PSAMMAPLYSIN C], the IC50 stood at 3 µg/mL (≈ 3.93 µM).

`COC1=C(Br)C[C@]2(OC=C1Br)ON=C(C(=O)NCCCOc1c(Br)cc(C(O)CN)cc1Br)[C@@H]2O` (stereo partly drawn) [PSAMMAPLYSIN B] yielded an IC50 of 6 µg/mL (≈ 8.01 µM).
